According to article PMC3230330 (Bioorganic & medicinal chemistry, 2011):
Read-outs that look alike come from different tables or passages of the source.

Tests used:
BoNT/A LC [1] = target: T1, BoNT/A LC (Clostridium botulinum, UniProt P0DPI0); assay: biochemical; type: biochemical
Anthrax LF = Anthrax LF (Bacillus anthracis, UniProt P15917); assay: biochemical
human MMP-1 = human MMP-1 (Homo sapiens, UniProt P03956); type: biochemical
human MMP-2 = human MMP-2 (Homo sapiens, UniProt P08253); type: biochemical
Sequence of human MMP-2 (P08253 110-660): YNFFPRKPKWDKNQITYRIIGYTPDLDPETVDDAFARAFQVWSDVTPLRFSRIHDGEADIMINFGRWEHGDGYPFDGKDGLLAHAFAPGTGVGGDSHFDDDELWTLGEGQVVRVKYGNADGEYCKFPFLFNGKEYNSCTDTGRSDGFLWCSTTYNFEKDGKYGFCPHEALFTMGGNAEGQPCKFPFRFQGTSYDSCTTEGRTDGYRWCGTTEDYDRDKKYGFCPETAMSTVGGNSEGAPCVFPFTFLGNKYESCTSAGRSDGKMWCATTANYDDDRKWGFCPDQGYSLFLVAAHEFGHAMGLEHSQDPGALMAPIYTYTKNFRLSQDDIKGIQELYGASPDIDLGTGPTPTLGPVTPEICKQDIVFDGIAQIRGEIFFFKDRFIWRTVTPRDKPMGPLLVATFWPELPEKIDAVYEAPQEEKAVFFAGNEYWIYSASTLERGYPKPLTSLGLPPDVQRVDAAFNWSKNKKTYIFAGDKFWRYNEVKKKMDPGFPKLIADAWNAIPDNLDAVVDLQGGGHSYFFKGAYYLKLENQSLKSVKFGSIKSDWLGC

human MMP-9 = human MMP-9 (Homo sapiens, UniProt P14780); type: biochemical
Sequence of human MMP-9 (P14780 94-707): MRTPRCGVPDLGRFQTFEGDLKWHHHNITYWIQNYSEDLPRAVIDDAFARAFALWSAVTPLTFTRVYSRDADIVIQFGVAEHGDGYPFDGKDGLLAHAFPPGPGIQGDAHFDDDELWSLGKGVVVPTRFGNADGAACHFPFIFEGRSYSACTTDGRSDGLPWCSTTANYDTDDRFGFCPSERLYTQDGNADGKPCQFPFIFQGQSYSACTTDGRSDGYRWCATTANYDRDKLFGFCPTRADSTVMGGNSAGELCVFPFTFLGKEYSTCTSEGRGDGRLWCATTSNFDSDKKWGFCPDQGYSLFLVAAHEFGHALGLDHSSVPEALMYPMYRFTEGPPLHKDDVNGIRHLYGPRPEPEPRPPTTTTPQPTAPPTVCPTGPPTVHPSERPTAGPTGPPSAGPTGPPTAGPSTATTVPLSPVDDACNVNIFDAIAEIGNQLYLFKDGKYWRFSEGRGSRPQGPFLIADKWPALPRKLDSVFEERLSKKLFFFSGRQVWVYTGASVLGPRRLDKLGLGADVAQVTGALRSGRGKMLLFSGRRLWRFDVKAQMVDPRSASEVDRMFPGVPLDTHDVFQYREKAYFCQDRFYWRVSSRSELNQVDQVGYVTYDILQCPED

BoNT/A LC [2] = target: T1, BoNT/A LC; type: biochemical
BoNT/A LC [3] = target: T1, BoNT/A LC; type: biochemical; remark: listed apart in the source
BoNT/B LC = conditions: cited from earlier work
BoNT/A LC [4] = target: T1, BoNT/A LC; conditions: cited from earlier work

T1 sequence (P0DPI0 2-448 limits assumed): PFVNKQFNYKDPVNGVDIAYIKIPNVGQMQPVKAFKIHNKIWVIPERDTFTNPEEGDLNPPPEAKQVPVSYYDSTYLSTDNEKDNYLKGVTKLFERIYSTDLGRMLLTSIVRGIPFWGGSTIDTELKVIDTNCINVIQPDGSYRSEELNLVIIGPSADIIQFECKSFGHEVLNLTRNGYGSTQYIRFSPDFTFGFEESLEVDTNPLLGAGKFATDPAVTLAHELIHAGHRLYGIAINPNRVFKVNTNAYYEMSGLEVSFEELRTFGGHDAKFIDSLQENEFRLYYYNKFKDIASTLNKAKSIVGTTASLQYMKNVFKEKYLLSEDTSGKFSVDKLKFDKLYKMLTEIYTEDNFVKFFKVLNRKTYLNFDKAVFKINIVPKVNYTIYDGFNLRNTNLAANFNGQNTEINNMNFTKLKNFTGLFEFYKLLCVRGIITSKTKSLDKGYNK
Sequence of Anthrax LF (P15917 34-809 limits assumed): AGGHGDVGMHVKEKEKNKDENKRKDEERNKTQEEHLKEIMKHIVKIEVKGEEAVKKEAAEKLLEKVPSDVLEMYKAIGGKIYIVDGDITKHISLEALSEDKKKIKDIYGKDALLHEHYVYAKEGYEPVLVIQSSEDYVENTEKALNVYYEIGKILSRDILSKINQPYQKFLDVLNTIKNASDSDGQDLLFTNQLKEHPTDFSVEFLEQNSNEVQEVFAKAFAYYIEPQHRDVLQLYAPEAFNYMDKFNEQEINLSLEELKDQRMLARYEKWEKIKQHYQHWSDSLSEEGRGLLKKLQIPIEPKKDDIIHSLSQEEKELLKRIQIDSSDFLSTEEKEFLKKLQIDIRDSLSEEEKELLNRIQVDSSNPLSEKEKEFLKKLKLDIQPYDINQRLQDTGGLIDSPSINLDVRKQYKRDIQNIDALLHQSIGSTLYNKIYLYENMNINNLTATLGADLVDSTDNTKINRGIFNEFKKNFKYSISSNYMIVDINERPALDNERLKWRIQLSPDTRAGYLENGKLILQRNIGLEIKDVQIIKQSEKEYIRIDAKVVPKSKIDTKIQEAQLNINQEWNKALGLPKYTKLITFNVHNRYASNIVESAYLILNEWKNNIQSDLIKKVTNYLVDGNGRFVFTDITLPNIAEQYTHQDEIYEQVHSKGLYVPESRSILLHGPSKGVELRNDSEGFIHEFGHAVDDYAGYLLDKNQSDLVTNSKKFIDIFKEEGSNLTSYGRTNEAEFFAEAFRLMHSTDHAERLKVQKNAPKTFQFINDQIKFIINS
Sequence of human MMP-1 (P03956 100-469): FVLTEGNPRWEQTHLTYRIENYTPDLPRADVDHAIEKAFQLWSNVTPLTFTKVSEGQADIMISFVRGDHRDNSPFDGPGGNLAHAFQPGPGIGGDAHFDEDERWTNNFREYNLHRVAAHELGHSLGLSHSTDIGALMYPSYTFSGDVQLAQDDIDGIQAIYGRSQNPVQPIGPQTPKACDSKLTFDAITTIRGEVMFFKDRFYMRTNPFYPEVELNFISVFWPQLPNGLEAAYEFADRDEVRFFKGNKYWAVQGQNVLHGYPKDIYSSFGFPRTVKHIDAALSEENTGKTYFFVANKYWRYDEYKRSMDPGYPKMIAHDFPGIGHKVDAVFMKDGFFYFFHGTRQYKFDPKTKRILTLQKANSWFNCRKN

In the case of “2-(1-Cyano-2-phenylvinyl)benzimidazole [Compound 8a]”, the “BoNT/A LC inhibitory potency (in words)” value (BoNT/A LC [1]) is reported as “eliminated inhibitory potency”.

With “2-[1-Cyano-2-(2,4-dichloropyrimidin-3-yl)vinyl]-benzimidazole [Compound 10b]” the IC50 (Anthrax LF; read-out: Anthrax LF IC50) was greater than 100 µM.

For COc1ccc(/C=C(\C#N)c2nc3ccccc3[nH]2)cc1I [Compound 4], the “MMP-1 IC50” value (human MMP-1) was “neither compound inhibited”, the “MMP-2 IC50” value (human MMP-2) was “neither compound inhibited” and the “MMP-9 IC50” value (human MMP-9) was “neither compound inhibited”. The Inactivated by cysteine (BoNT/A LC [2]) was “inactivated”, the Inactivated by glutathione (BoNT/A LC [2]) was “inactivated” and the “Inactivated by zinc chelation” value (BoNT/A LC [2]) was “neither are metal chelating agents”. The “manner of BoNT/A LC inhibition” value (BoNT/A LC [3]) was “time-dependent”, the “BoNT/B LC FRET IC50” value (BoNT/B LC) was “neither 4 nor 5 inhibited” and the “kinetics with respect to the substrate” value (BoNT/A LC [4]) was “noncompetitive”.

With N#C/C(=C\c1ccc(-c2cccs2)s1)c1nc2ccccc2[nH]1 [Compound 5, 3-(2,2'-Bithiophen-5-yl)-2-(1H-benzo[d]imidazol-2-yl)acrylonitrile] the “MMP-1 IC50” value (human MMP-1) was “neither compound inhibited”, the “MMP-2 IC50” value (human MMP-2) was “neither compound inhibited” and the “MMP-9 IC50” value (human MMP-9) was “neither compound inhibited”. The Inactivated by cysteine (BoNT/A LC [2]) was “no significant, non-specific reactivity”, the Inactivated by glutathione (BoNT/A LC [2]) was “no significant, non-specific reactivity” and the “Inactivated by zinc chelation” value (BoNT/A LC [2]) was “neither are metal chelating agents”. The “manner of BoNT/A LC inhibition” value (BoNT/A LC [3]) was “time-dependent”, the “BoNT/B LC FRET IC50” value (BoNT/B LC) was “neither 4 nor 5 inhibited” and the “kinetics with respect to the substrate” value (BoNT/A LC [4]) was “noncompetitive”.

In the case of COc1ccc(/C=C(\C#N)c2nc3ccccc3[nH]2)cc1OC [Compound 8f, 2-(1H-Benzo[d]imidazol-2-yl)-3-(3,4-dimethoxyphenyl)acrylonitrile], the “BoNT/A LC inhibitory potency (in words)” value (BoNT/A LC [1]) is reported as “eliminated inhibitory potency”.

In the case of COc1cc(/C=C(\C#N)c2nc3ccccc3[nH]2)cc(Cl)c1O [Compound 8g, 2-[1-Cyano-2-(3-chloro-5-methoxy-4-hydroxyphenyl)vinyl]benzimidazole], the “BoNT/A LC inhibitory potency (in words)” value (BoNT/A LC [1]) is reported as “significantly decreased or diminished activity”.

For COc1cc(C=C(C#N)c2nc3ccccc3[nH]2)cc(Br)c1O [Compound 8h, 2-[1-Cyano-2-(3-bromo-5-methoxy-4-hydroxyphenyl)vinyl]benzimidazole], the “BoNT/A LC inhibitory potency (in words)” value (BoNT/A LC [1]) was “significantly decreased or diminished activity”, the IC50 (BoNT/A LC [1]) was 94 µM and the IC50 (Anthrax LF) was greater than 100 µM.

In the case of N#C/C(=C\c1ccc(-c2ccccc2)cc1)c1nc2ccccc2[nH]1 [Compound 8i, 2-(1H-Benzo[d]imidazol-2-yl)-3-(biphenyl-4-yl)acrylonitrile], the “BoNT/A LC inhibitory potency (in words)” value (BoNT/A LC [1]) is reported as “significantly lower potency with respect to 4”.

For N#CC(=Cc1ccc(-n2ccnc2)cc1)c1nc2ccccc2[nH]1 [Compound 8j, 3-(4-(1H-Imidazol-1-yl)phenyl)-2-(1H-benzo[d]imidazol-2-yl)acrylonitrile], the “BoNT/A LC inhibitory potency (in words)” value (BoNT/A LC [1]) was “significantly lower potency with respect to 4”, the IC50 (BoNT/A LC [1]) was 73 µM and the IC50 (Anthrax LF) was greater than 100 µM.

With COc1cc(C=C(C#N)c2nc3ccccc3[nH]2)cc(O)c1OC [Compound 8k, 2-(1H-Benzo[d]imidazol-2-yl)-3-(3-hydroxy-4,5-dimethoxyphenyl)acrylonitrile] the “BoNT/A LC inhibitory potency (in words)” value (BoNT/A LC [1]) was “significantly decreased or diminished activity”, the IC50 (BoNT/A LC [1]) was greater than 100 µM and the IC50 (Anthrax LF) was greater than 100 µM.

In the case of Cc1ccc(/C=C(\C#N)c2nc3ccccc3[nH]2)s1 [Compound 12a, 2-(1H-Benzo[d]imidazol-2-yl)-3-(5-methylthiophen-2-yl)acrylonitrile], the “BoNT/A LC inhibitory potency (in words)” value (BoNT/A LC [1]) is reported as “no BoNT/A LC inhibition”.

For Cc1cc(/C=C(\C#N)c2nc3ccccc3[nH]2)sc1C [Compound 12b, 2-(1H-Benzo[d]imidazol-2-yl)-3-(4,5-dimethylthiophen-2-yl)acrylonitrile], the “BoNT/A LC inhibitory potency (in words)” value (BoNT/A LC [1]) was “no BoNT/A LC inhibition”.

In the case of N#C/C(=C\c1cccs1)c1nc2ccccc2[nH]1 [Compound 12c, 2-(1H-Benzo[d]imidazol-2-yl)-3-(thiophen-2-yl)acrylonitrile], the “BoNT/A LC inhibitory potency (in words)” value (BoNT/A LC [1]) is reported as “no BoNT/A LC inhibition”.

For N#C/C(=C\c1ccc(-c2ccco2)s1)c1nc2ccccc2[nH]1 [Compound 12d, 2-(1H-Benzo[d]imidazol-2-yl)-3-(5-(furan-2-yl)thiophen-2-yl)acrylonitrile], the “BoNT/A LC inhibitory potency (in words)” value (BoNT/A LC [1]) was “approximately two-fold less potent than 5”.

With N#C/C(=C\c1ccc(-c2cccs2)o1)c1nc2ccccc2[nH]1 [Compound 12e, 2-(1H-Benzo[d]imidazol-2-yl)-3-(5-(thiophen-2-yl)furan-2-yl)acrylonitrile hemiacetate] the “BoNT/A LC inhibitory potency (in words)” value (BoNT/A LC [1]) was “no activity was observed”.

For N#C/C(=C\c1ccc(-c2cccs2)s1)c1cc2ccccc2[nH]1 [Compound 14a, 3-(2,2'-Bithiophen-5-yl)-2-(1H-indol-2-yl)acrylonitrile], the “BoNT/A LC inhibitory potency (in words)” value (BoNT/A LC [1]) was “eliminated inhibitory potency”.

For N#C/C(=C\c1ccc(-c2cccs2)s1)c1nc2ccccc2s1 [Compound 14b, 3-(2,2'-Bithiophen-5-yl)-2-(benzo[d]thiazol-2-yl)acrylonitrile], the “BoNT/A LC inhibitory potency (in words)” value (BoNT/A LC [1]) was “eliminated inhibitory potency”.

For N#C/C(=C\c1ccc(-c2cccs2)s1)c1nc2ccccc2o1 [Compound 14c, 3-(2,2'-Bithiophen-5-yl)-2-(benzo[d]oxazol-2-yl)acrylonitrile], the “BoNT/A LC inhibitory potency (in words)” value (BoNT/A LC [1]) was “eliminated inhibitory potency”.

With N#C/C(=C\c1ccc(-c2cccs2)s1)c1ccc2ccccc2n1 [Compound 14d, 3-(2,2'-Bithiophen-5-yl)-2-(quinolin-2-yl)acrylonitrile] the “BoNT/A LC inhibitory potency (in words)” value (BoNT/A LC [1]) was “eliminated inhibitory potency”.

For Cn1c(/C(C#N)=C/c2ccc(-c3cccs3)s2)[n+](C)c2ccccc21.[I-] [Compound 15, 2-(2-(2,2'-Bithiophen-5-yl)-1-cyanovinyl)-1,3-dimethyl-1H-benzo[d]imidazol-3-ium iodide], the “BoNT/A LC inhibitory potency (in words)” value (BoNT/A LC [1]) was “detrimental to potency”.
